The source of these data is ChEMBL document CHEMBL1201862, “PubChem BioAssay data set” (2004).

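Cells were grown in 96-well plates and exposed to each compound for 48 hours at five concentrations; endpoints were interpolated linearly between bracketing concentrations, or set to the highest concentration if not reached. Abbreviation: GI50, concentration required for 50% inhibition of growth.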 Active and inactive are the calls of the source. Rule as the data show it: active = GI50 up to about 1.1 µM and inactive = higher.

Among the test systems are SNB-19; K562; SN12C; NCI-H460; HCC 2998; SF-268; CCRF-CEM; SK-MEL-5; UACC-257; HCT-116; LOX IMVI; SF-295; A549; SK-MEL-2; RXF 393; HCT-15; NCI-H23; SK-MEL-28; OVCAR-5; HOP-62.
Assay in all cases: DTP human tumour cell line panel, 48 h

Usually GI50 stands for the concentration giving 50% growth inhibition. As for `N[C@@H](CSCSC[C@H](N)C(=O)O)C(=O)O`, the GI50 was 174 µM (inactive) with SNB-19; > 225 µM (inactive) in the assay with K562; > 225 µM (inactive) with SN12C; > 225 µM (inactive) in the assay on NCI-H460; > 225 µM (inactive) in the assay with HCC 2998; > 225 µM (inactive) in the assay with SF-268. The GI50 with CCRF-CEM was 89.5 µM (inactive); in the assay on SK-MEL-5, > 225 µM (inactive); with UACC-257, > 225 µM (inactive); with HCT-116, > 225 µM (inactive); in the assay on LOX IMVI, > 225 µM (inactive); with SF-295, > 225 µM (inactive). Besides, the GI50 in the assay with A549 is > 225 µM (inactive); in the assay on SK-MEL-2 it was > 225 µM (inactive); in the assay on RXF 393 it was > 225 µM (inactive); with HCT-15, above 225 µM; in the assay on NCI-H23, > 225 µM (inactive); in the assay on SK-MEL-28 it was > 225 µM (inactive). The GI50 in the assay with OVCAR-5 and with HOP-62 was > 225 µM (inactive) throughout.
With `C[Si](C)(C)OC1(C#N)c2ccccc2CCCC12CCCC2` (configuration not stated), the GI50 with SNB-19 was 44 µM (inactive); with K562, 34.7 µM (inactive); with SN12C it was 59.4 µM (inactive); with NCI-H460, 37.6 µM (inactive); in the assay with HCC 2998, 16.4 µM (inactive); with SF-268, 57.4 µM (inactive). For the same molecule, the GI50 in the assay on CCRF-CEM was 19.6 µM (inactive); in the assay with SK-MEL-5, 24.1 µM (inactive); with UACC-257, 21.4 µM (inactive); in the assay on HCT-116, 26.6 µM (inactive); with LOX IMVI, 22 µM (inactive); with SF-295, 34 µM (inactive). Besides, the GI50 is 34.9 µM (inactive) in the assay with A549; 18.5 µM (inactive) in the assay on SK-MEL-2; 26.5 µM (inactive) in the assay with RXF 393; 39 µM with HCT-15; 45.7 µM (inactive) in the assay on NCI-H23; 44.5 µM (inactive) in the assay on SK-MEL-28. Moreover, the GI50 was > 100 µM (inactive) with OVCAR-5 and 67.9 µM (inactive) with HOP-62.
As to `CC(=O)/N=C1/N(/C=C2\C(=O)Oc3ccccc3C2=O)C(=O)/C(=C/c2ccc(OC(C)=O)cc2)N1C`, the GI50 with K562, in the assay with SN12C, in the assay with NCI-H460, in the assay on HCC 2998, with SF-268 and with CCRF-CEM was > 100 µM (inactive) each time. Also, the GI50 with SK-MEL-5, in the assay with UACC-257, with HCT-116, in the assay with LOX IMVI, with SF-295 and in the assay on A549 was > 100 µM (inactive) throughout. Further, the GI50 with SK-MEL-2 is > 100 µM (inactive); in the assay on RXF 393, > 100 µM (inactive); in the assay with HCT-15, above 100 µM; with NCI-H23 it was > 100 µM (inactive); in the assay on SK-MEL-28 it was > 100 µM (inactive); in the assay with OVCAR-5 it was > 100 µM (inactive). Further, the GI50 in the assay with HOP-62 was > 100 µM (inactive).
Consider `Nc1cc(S(=O)(=O)O)cc2cc(S(=O)(=O)O)c(/N=N/c3ccc(-c4ccc(/N=N/c5c(S(=O)(=O)O)cc6cc(S(=O)(=O)O)cc(N)c6c5O)cc4)cc3)c(O)c12`, for which the GI50 in the assay on SNB-19, in the assay on K562, in the assay with SN12C, in the assay on NCI-H460, with HCC 2998 and in the assay with SF-268 was > 100 µM (inactive) in each case. In addition, the GI50 with CCRF-CEM, with SK-MEL-5, with UACC-257, with HCT-116, with LOX IMVI and with SF-295 was > 100 µM (inactive) in each case. Moreover, the GI50 was > 100 µM (inactive) in the assay on A549; > 100 µM (inactive) with SK-MEL-2; > 69.5 µM (inactive) with RXF 393; above 100 µM with HCT-15; > 100 µM (inactive) in the assay on NCI-H23; > 100 µM (inactive) in the assay on SK-MEL-28. For the same molecule, the GI50 in the assay with OVCAR-5 and with HOP-62 was > 100 µM (inactive) in each case.
For the molecule `COC(=O)C1(Cc2ccccc2)Cc2cc3c(cc2C1)CCC3`, the GI50 with SNB-19 was 37.6 µM (inactive); in the assay with K562, 17 µM (inactive); with SN12C, 42.3 µM (inactive); in the assay on NCI-H460 it was 33.3 µM (inactive); in the assay on HCC 2998, 34.1 µM (inactive); in the assay with SF-268, 41.4 µM (inactive). The GI50 was 14.9 µM (inactive) with CCRF-CEM; 17.2 µM (inactive) in the assay on SK-MEL-5; 29.2 µM (inactive) in the assay with UACC-257; 22 µM (inactive) in the assay on HCT-116; 18.6 µM (inactive) with LOX IMVI; 37.5 µM (inactive) in the assay on SF-295. Also, the GI50 in the assay on A549 was 29.6 µM (inactive); in the assay on SK-MEL-2 it was 18.5 µM (inactive); with RXF 393, 20.1 µM (inactive); with HCT-15, 28.4 µM; in the assay with NCI-H23, 38.5 µM (inactive); with SK-MEL-28 it was 41.1 µM (inactive). For the same molecule, the results for the GI50 with OVCAR-5 and with HOP-62 were 27.7 µM (inactive) and 50.2 µM (inactive), respectively.
Take `CC1(C)CC[C@]2(C)CC[C@]3(C)C(=CC[C@@H]4[C@@]5(C)CCC(=O)C(C)(C)[C@@H]5[C@H](O)C[C@]43C)[C@@H]2C1`: the GI50 with SNB-19 is 15.3 µM (inactive); in the assay with SN12C, 15.1 µM (inactive); in the assay on NCI-H460 it was 18 µM (inactive); with HCC 2998 it was 15.5 µM (inactive); in the assay with SF-268, 17.8 µM (inactive); in the assay on CCRF-CEM, 30.8 µM (inactive). The GI50 is 17.4 µM (inactive) in the assay on SK-MEL-5; 17.7 µM (inactive) in the assay with UACC-257; 16.3 µM (inactive) with HCT-116; 17.1 µM (inactive) with LOX IMVI; 17.6 µM (inactive) in the assay with SF-295; 20.3 µM (inactive) in the assay with A549. Further, the GI50 with SK-MEL-2 is 16 µM (inactive); in the assay with RXF 393 it was 16.1 µM (inactive); in the assay on HCT-15, 18.6 µM; in the assay with NCI-H23 it was 19.5 µM (inactive); in the assay with SK-MEL-28, 17.6 µM (inactive); with OVCAR-5 it was 16 µM (inactive). The GI50 with HOP-62 was 17 µM (inactive).
On to `O=[N+]([O-])c1ccc(C2=Nc3ccccc3SC(c3ccccc3)C2)cc1` (configuration not stated), for which the GI50 in the assay on SNB-19 was 17 µM (inactive); in the assay on K562 it was 15.8 µM (inactive); with SN12C, 17 µM (inactive); with NCI-H460, 20.6 µM (inactive); with HCC 2998, 15.2 µM (inactive); in the assay on SF-268 it was 24.7 µM (inactive). The GI50 is 14.7 µM (inactive) in the assay with CCRF-CEM; 18.1 µM (inactive) with SK-MEL-5; 26.2 µM (inactive) with UACC-257; 11.9 µM (inactive) in the assay on HCT-116; 13.7 µM (inactive) in the assay with LOX IMVI; 20.2 µM (inactive) with SF-295. The GI50 is 20.4 µM (inactive) with A549; 18.4 µM (inactive) in the assay on SK-MEL-2; 24.6 µM (inactive) in the assay with RXF 393; 16.3 µM with HCT-15; 21.3 µM (inactive) with SK-MEL-28; 19.5 µM (inactive) in the assay with OVCAR-5. Further, in the assay on HOP-62, the GI50 is 20.7 µM (inactive).
